Experimental data: paper PMC11467302, “Discovery of a potent, Kv7.3-selective potassium channel opener from a Polynesian traditional botanical anticonvulsant” (Communications Chemistry, 2024)

Columns and labels:
Format in all cases: cell-based
Kv7.3 [1] = biological target: T1, Kv7.3 (Homo sapiens, UniProt O43525); test: two-electrode voltage clamp at […], shift of V0.5act
T1 construct: gene KCNQ3; Kv7.2/3 heteromer expressed in Xenopus oocytes; with Kv7.2 (KCNQ2)

Kv7.3 [2] = biological target: T1, Kv7.3; test: two-electrode voltage clamp, shift of V0.5act, dose response
Kv7.3* = biological target: T2, Kv7.3* (Homo sapiens, UniProt O43525, A315T); test: as above
T2 construct: gene KCNQ3; Kv7.3* homomer expressed in Xenopus oocytes
T2 sequence (O43525 1-872 A315T): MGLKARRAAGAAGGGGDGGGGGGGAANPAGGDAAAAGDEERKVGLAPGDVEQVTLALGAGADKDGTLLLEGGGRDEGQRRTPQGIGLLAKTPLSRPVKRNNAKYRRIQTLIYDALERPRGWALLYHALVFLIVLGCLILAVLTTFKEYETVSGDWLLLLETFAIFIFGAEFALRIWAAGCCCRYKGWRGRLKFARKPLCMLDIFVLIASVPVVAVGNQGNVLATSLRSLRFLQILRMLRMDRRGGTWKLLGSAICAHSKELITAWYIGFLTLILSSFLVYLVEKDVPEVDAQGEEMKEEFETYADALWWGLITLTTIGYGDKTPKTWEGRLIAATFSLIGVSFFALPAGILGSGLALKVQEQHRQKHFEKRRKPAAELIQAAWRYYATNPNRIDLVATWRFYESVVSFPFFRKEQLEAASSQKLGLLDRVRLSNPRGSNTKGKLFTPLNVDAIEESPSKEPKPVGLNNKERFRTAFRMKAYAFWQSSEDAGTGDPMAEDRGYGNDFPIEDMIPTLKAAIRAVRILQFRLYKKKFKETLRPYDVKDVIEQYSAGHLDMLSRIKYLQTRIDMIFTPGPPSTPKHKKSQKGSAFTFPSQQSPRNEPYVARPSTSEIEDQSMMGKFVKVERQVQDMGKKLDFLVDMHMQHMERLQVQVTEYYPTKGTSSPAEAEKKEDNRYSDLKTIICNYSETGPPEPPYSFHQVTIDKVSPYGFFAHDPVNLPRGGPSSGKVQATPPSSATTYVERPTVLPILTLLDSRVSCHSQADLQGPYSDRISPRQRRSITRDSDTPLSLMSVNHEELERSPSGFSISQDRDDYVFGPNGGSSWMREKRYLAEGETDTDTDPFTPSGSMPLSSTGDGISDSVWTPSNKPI

T1 sequence (O43525 whole entry): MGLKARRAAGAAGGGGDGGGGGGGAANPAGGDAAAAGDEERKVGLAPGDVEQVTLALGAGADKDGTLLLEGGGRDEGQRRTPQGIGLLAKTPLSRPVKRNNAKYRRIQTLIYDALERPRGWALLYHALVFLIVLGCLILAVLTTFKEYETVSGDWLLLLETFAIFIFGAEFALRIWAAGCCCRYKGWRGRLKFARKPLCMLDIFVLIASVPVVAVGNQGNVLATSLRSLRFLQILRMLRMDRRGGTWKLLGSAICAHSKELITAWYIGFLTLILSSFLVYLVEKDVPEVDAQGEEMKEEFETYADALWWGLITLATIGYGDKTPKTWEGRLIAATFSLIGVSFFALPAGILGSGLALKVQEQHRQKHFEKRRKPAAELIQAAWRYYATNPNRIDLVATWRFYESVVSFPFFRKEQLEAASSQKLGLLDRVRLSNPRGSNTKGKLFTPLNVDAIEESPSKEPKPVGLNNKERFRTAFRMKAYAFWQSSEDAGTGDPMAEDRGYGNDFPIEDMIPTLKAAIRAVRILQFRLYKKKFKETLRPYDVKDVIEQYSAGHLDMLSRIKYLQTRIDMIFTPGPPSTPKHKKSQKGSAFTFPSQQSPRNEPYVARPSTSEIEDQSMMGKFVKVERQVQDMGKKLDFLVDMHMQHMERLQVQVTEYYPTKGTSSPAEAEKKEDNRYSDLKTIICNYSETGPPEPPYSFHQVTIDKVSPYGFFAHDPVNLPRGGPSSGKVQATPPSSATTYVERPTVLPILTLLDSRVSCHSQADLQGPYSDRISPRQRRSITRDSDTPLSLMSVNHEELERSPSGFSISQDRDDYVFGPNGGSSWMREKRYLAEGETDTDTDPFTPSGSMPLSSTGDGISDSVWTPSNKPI
T1 sequence (O43526 whole entry partner): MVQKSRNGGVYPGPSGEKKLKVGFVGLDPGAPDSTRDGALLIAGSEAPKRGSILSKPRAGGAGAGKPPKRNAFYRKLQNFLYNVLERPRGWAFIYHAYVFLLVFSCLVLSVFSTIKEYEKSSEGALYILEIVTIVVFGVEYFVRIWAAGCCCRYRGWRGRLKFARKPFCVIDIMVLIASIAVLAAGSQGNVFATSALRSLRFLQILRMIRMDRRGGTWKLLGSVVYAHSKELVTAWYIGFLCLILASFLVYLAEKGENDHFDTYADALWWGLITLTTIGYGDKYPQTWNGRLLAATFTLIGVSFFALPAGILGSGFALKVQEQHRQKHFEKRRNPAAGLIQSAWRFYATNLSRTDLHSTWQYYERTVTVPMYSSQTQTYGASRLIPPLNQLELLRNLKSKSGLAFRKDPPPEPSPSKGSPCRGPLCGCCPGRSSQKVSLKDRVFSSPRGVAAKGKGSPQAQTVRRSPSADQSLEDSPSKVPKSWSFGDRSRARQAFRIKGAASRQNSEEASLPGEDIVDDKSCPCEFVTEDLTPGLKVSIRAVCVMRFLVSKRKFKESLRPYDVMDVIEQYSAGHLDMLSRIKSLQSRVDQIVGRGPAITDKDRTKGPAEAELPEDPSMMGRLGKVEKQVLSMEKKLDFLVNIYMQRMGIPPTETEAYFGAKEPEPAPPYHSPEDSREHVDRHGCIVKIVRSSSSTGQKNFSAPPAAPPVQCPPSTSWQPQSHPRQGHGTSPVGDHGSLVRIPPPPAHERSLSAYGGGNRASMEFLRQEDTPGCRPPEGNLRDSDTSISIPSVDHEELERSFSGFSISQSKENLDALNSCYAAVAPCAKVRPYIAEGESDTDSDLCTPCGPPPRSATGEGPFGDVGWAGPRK

Structure (SMILES) | two-electrode voltage clamp at 100 μM, shift of V0.5act (Kv7.3 [1]) | EC50 (Kv7.3 [2]) [nM] | EC50 (Kv7.3*) [nM]
O=S(=O)(O)c1cc(O)ccc1O [calcium dobesilate] | one analog of GA did exhibit similar efficacy to that of GA—the sulfonic acid, calcium dobesilate | – | –
O=C(O)c1cc(O)ccc1O [GA, gentisic acid] | – | 2.8 | 0.79
